Experimental data: patent EP2402322A1, “1,2,3,4-tetrahydroisoquinoline derivative and its use as orexin receptor antagonist” (Actelion Pharmaceuticals Ltd., priority 2010, dated 2012)
Read-outs that look alike come from different tables or passages of the source.

Tests used:
human orexin-1 receptor = biological target: T1, human orexin-1 receptor (Homo sapiens, UniProt O43613); experiment: Intracellular calcium measurements (FLIPR), CHO cells, 3 nM orexin-A as agonist; assay type: cell-based
T1 construct: expressed in transfected cells; host or cells: CHO cells (G418 selection)
T1 sequence (O43613 1-425): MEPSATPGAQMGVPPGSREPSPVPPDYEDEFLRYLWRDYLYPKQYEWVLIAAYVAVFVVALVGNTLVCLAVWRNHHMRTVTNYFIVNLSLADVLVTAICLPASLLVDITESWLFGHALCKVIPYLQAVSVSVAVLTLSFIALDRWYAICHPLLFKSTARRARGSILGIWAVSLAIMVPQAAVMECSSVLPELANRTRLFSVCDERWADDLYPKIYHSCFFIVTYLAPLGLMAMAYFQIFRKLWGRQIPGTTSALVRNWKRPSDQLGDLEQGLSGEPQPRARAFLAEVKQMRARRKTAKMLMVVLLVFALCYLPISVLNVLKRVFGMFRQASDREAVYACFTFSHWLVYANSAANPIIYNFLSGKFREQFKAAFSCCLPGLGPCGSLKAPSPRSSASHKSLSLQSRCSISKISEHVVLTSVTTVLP
Experimental: Chinese hamster ovary (CHO) cells expressing the human orexin-1 receptor and the human orexin-2 receptor, respectively, are grown in culture medium (Ham F-12 with L-Glutamine) containing 300 µg/ml G418, 100 U/ml penicillin, 100 µg/ml streptomycin and 10 % heat inactivated fetal calf serum (FCS). The cells are seeded at 20'000 cells / well into 384-well black clear bottom sterile plates (Greiner). The seeded plates are incubated overnight at 37°C in 5% CO2.
Human orexin-A as an agonist is prepared as 1 mM stock solution in MeOH: water (1:1), diluted in HBSS containing 0.1 % bovine serum albumin (BSA), NaHCO3: 0.375g/l and 20 mM HEPES for use in the assay at a final concentration of 3 nM. […]
Within the Fluorescent Imaging Plate Reader (FLIPR Tetra, Molecular Devices), antagonists are added to the plate in a volume of 10 µl/well, incubated for 10 min and finally 10 µl/well of agonist is added. Fluorescence is measured for each well at 1 second intervals, and the height of each fluorescence peak is compared to the height of the fluorescence peak induced by 3 nM orexin-A with vehicle in place of antagonist. […] The calculated IC50 values may fluctuate depending on the daily cellular assay performance. […]

human orexin-2 receptor = biological target: T2, human orexin-2 receptor (Homo sapiens, UniProt O43614); experiment: as above; assay type: cell-based; conditions: geometric mean; antagonism of 3 nM orexin-A
T2 construct: expressed in transfected cells; host or cells: CHO cells (G418 selection)
T2 sequence (O43614 1-444): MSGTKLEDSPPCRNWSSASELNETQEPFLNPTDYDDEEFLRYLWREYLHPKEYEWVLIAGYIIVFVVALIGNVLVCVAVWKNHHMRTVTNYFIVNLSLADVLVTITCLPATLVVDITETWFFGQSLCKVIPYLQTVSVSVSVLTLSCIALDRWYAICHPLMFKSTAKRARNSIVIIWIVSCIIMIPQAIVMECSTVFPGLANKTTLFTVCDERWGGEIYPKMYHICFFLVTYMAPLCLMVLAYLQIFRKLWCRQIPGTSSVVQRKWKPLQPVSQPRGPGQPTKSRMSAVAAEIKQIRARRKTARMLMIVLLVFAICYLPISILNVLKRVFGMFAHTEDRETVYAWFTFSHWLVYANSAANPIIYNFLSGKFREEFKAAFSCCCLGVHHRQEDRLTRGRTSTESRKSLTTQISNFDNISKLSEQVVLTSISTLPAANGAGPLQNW
Experimental: Fluorescence is measured for each well at 1 second intervals, and the height of each fluorescence peak is compared to the height of the fluorescence peak induced by 3 nM orexin-A with vehicle in place of antagonist. […] Optimized conditions were achieved by adjustment of pipetting speed and cell splitting regime. The calculated IC50 values may fluctuate depending on the daily cellular assay performance. Fluctuations of this kind are known to those skilled in the art.

[1] = Measurement of brain and systemic concentration after oral administration; assay type: in vivo, male wistar rats; conditions: rat; for concentration at 3 h: 3 h after oral administration (100 mg/kg), n = 3, male wistar rats, 100% PEG 400; for capacity to cross the blood-brain barrier: summary statement
Experimental: The compounds are formulated in 100% PEG 400. Samples are collected in the same animal at the same time point (+/- 5 min). Blood is sampled from the vena cava caudalis into containers with EDTA as anticoagulant and centrifuged to yield plasma. Brain is sampled after cardiac perfusion of 10 mL NaCl 0.9% and homogenized into one volume of cold phosphate buffer (pH 7.4). All samples are extracted with MeOH and analyzed by LC-MS/MS. Concentrations are determined with the help of calibration curves.

F344 rats = experiment: Fear-potentiated startle paradigm; assay type: in vivo; conditions: 300 mg/kg oral gavage, 1 h before test, n=16 F344 rats; Figure 2
From the text: The fear-potentiated startle (FPS) paradigm is a model of conditioned fear in rodents that relates to emotional states of fear and anxiety. Rats can be trained to associate an initially neutral, soon-to-be conditioned stimulus (CS: e.g. light) with an aversive, unconditioned stimulus (US; e.g. foot shook). When tested after training for their startle reflex response to brief (ms) noise bursts in the absence vs. the presence of the CS (e.g. light), rats generally show greater startle amplitudes during the presence of the CS which now serves as a predictor of shock. […] This model translates to humans where a similar training procedure can be implemented and a FPS response can also be evoked in the presence of a shock predicting cue. […] The current paradigm represents a translational animal model that is predictive of anxiolytic activity of a drug.
Method: Sixteen adult male F344 rats were trained for two consecutive days (conditioning phase) to associate a light-stimulus with a foot shock (0.4 mA). On the following day they were tested for their response to startle eliciting noise stimuli which were delivered randomly under light (cue) or dark (no cue) conditions. […] Average startle responses to noise stimuli of 90, 100 and 110dB intensity under light and dark conditions during the test day were measured and electrically transduced into a millivolt signal. […]

Wistar rats = experiment: EEG, EMG and behavioural indices of alertness recorded by radiotelemetry (absence of sleep-promoting effects); assay type: in vivo
Experimental: EEG and EMG signals were measured by telemetry using TL11 M2-F20-EET miniature radiotelemetric implants (Data Science Int.) with two pairs of differential leads.
Surgical implantation was performed under general anesthesia with Ketamin/Xylazln, for cranial placement of one differential pair of EEG electrodes and one pair of EMG leads inserted in either side of the muscles of the neck. After surgery, rats recovered in a thermoregulated chamber and received analgesic treatment with subcutaneous buprenorphine twice a day for 2 d. They were then housed individually and allowed to recover for a minimum of 2 weeks. Thereafter, rats—in their home cage—were placed in a ventilate sound-attenuating box, on a 12-h light / 12-h dark cycle, for acclimatization before continuous EEG / EMG recordings started. The telemetric technology that we used in this study allows accurate and stress-free acquisition of biosignals in rats placed In their familiar home cage environment, with no recording leads restricting their movements. Variables analyzed included four different stages of vigilance and sleep, spontaneous activity in the home cage and body temperature. Sleep and wake stages were evaluated using a rodent scoring software (Somnologica Science) directly processing electrical biosignals on 10 s contiguous epochs. The scoring is based on frequency estimation for EEG and amplitude discrimination for EMG and locomotor activity. Using these measurements, the software determines the probability that all components within each epoch best represent active waking (AW), quiet waking (QW), non-REM-sleep (NREM) or REM-sleep (REM). The percentage of total time spent in AW, QW. NREM- and REM-sleep was calculated per 12 h light or dark period. The latency to the onset of the first significant NREM- and REM-sleep episodes and the frequency and duration of those episodes were also calculated. […] All variables were subsequently recorded for 12 h following administration of the orexin receptor antagonist.

Male Sprague Dawley rats = experiment: Acquisition of morphine induced locomotor sensitization; assay type: in vivo; conditions: 300 mg/kg p.o. 2 h before each morphine injection (10 mg/kg i.p.), 4 pairings; Figure 1
From the text: Method: Although, in essence, locomotor sensitization is a non-associative learning process, the context plays a major role in the development and expression of locomotor sensitization. Thus, drug injections are usually administered intermittently in a context different from the home cage, such as an open field, where locomotor activity can be quantitatively measured. Drugs are regularly administered in high concentrations and via routes of administration with a fast onset of action (such as intraperitoneal or intravenous injections). In order to induce robust locomotor sensitization drugs are administered typically once a day over a period of several days. Once established in such a way, locomotor sensitization can be observed in response to a new drug challenge over a period of up to several months.
Method: Male Sprague Dawley rats are injected with morphine (10 mg/kg i.p.) and placed immediately afterwards in an open field (45 x 40 x 33 cm) for 45 min. Total distance moved (TDM) of the animal is recorded automatically via video-tracking. This procedure is repeated 4 times, every 2nd day, so that each animal received a total number of 4 pairings of morphine injection within the context of the open field.

rat [2] = conditions: cited from earlier work
rat [3] = conditions: animal model of conditioned fear; cited from earlier work
[4] = rat; cited from earlier work
[5] = brain, read-out: concentration in brain [B]
[6] = plasma, read-out: concentration in plasma [P]
[7] = 300 mg/kg po, Wistar rats, 12 h following administration

CCCCNC(=O)[C@@H](c1ccccc1)N1CCc2cc(OC)c(OC)cc2[C@@H]1Cc1ccc(OC)c(OC)c1 [Reference Compound 1, (R)-2-[(S)-1-(3,4-Dimethoxy-benzyl)-6,7-dimethoxy-3,4-dihydro-1H-isoquinolin-2-yl]-N-butyl-2-phenyl-acetamide, reference compound]
IC50 (human orexin-1 receptor; geometric mean, antagonism of 3 nM orexin-A, read-out: IC50 value on the orexin-1 receptor): 12 nM
IC50 (human orexin-2 receptor): > 300 nM
concentration at 3 h [1, 5]: 530 ng/g
concentration at 3 h [1, 6]: 850 ng/mL
capacity to cross the blood-brain barrier [1]: only moderate capacity
fear-potentiated startle response under light (cue) conditions as compared to vehicle (F344 rats): no effect

COc1ccc(C[C@H]2c3cc(OC)c(OC)cc3CCN2[C@@H](C(=O)NC(C)C)c2ccccc2)cc1OC [COMPOUND, (R)-2-[(S)-1-(3,4-dimethoxy-benzyl)-6,7-dimethoxy-3,4-dihydro-1H-isoquinolin-2-yl]-N-isopropyl-2-phenyl-acetamide]
effect on NREM sleep compared to vehicle controls (Wistar rats; [7]): -2%
effect on REM sleep compared to vehicle controls (Wistar rats; [7]): +1%
effect on active wake compared to vehicle controls (Wistar rats; [7]): -4%
effect on home cage activity compared to vehicle controls (Wistar rats; [7]): -3%
effect in a model relevant to sleep induction (Wistar rats; at relevant dose, summary statement): no effect
IC50 (human orexin-1 receptor): 27 nM
acquisition of locomotor sensitization to morphine (total distance moved) (Male Sprague Dawley rats): significantly reduced
concentration at 3 h [1, 5]: 880 ng/g
concentration at 3 h [1, 6]: 1460 ng/mL
capacity to cross the blood-brain barrier [1]: crossed the blood-brain barrier
fear-potentiated startle response under light (cue) conditions as compared to vehicle (F344 rats): significantly reduced

CNC(=O)[C@@H](c1ccccc1)N1CCc2cc(OC)c(OC)cc2[C@@H]1CCc1ccc(C(F)(F)F)cc1 [(2R)-2-{(1S)-6,7-dimethoxy-1-[2-(4-trifluoromethyl-phenyl)-ethyl]-3,4-dihydro-1H-isoquinolin-2-yl}-N-methyl-2-phenyl-acetamide]
alertness (active wake and locomotion) (rat [2]): decrease alertness
time spent in both REM and NREM sleep (rat [2]): dose-dependently increase
activity in the rat fear potentiated startle paradigm (rat [3]): active
crossing of the blood-brain barrier [4]: cross the blood-brain barrier
systemic bioavailability [4]: good
